ChEMBL document CHEMBL3507680, “University of Dundee, Gates Library screen for HepG2 cell viability”
Several values for one entry are separate records, joined by “and”; a condition that tells them apart may be missing. Equal entries are not always repeated.

Test: Human HepG2 cell viability dose-response assay
Type: toxicity, cell-based
Settings: not given

| Structure (SMILES) | BOTTOM | HILLSLOPE | TOP | pXC50 |
| --- | --- | --- | --- | --- |
| O=C(Nc1cc(C(F)(F)F)c[nH]c1=O)c1ccco1 | -14.03 and -12.55 | 1.1 and 1.086 | 100 | 4.903 and 4.796 |
| O=C(NCCCN1CCCCC1)c1ccc(-n2ccc3ccccc32)s1 | -3.023 and -2.579 | 5.041 and 5.956 | 103.2 and 102.3 | 5.01 and 4.975 |
| Cc1cccc(C)c1Nc1noc2c1CN(C(=O)c1cn(C)cn1)CC2 | -7.032 and -2.364 | 1.548 and 1.741 | 100 | 4.986 and 4.918 |
| CC(C)Nc1cc(-c2c[nH]nc2C2CCN(C(=O)C3CCC3)C2)ccn1 (stereo not drawn) | 5.771 and 12.22 | 3.68 and 3.705 | 97.15 and 97.9 | 6.593 and 6.589 |
| Cc1cnc(CCN(C)C(=O)c2cccc(N(C)C)c2)s1 | 0 | 0 | 0 | < 4.53 |
| Cc1nn(C)cc1C(=O)Nc1cccc(CN2CCC(CO)CC2)c1 | 0 | 0 | 0 | < 4.53 |
| COCC(NC(=O)c1cn2ccsc2n1)c1ccnn1C (stereo not drawn) | 0 | 0 | 0 | < 4.53 |
| CCc1[nH]c2c(CNc3cc(C)nc(NC)n3)cc(C)cc2c1C | -3.677 and -3.483 | 3.229 and 3.201 | 103.4 and 104.1 | 5.247 and 5.258 |
| CC(C)c1cc(CN2CCNCC2)no1 | -2.548 and -2.696 |  | 101.6 and 102.2 | 4.866 and 4.991 |
| Cc1nc(Nc2ncc(C)s2)cc(C2CCCN2)n1.Cl (stereo not drawn) | 26.01 and 24.5 | 4.462 and 3.743 | 100.2 and 98.81 | 5.319 and 5.315 |
| CC(C)N1CCN(c2ccc3ccc(C(=O)NC4CCCC4)cn23)CC1.O=C(O)C(F)(F)F | 0 | 0 | 0 | < 4.53 |

Test: Human HepG2 cell viability assay in 384 well format
Type: toxicity, cell-based
Parameters: dose 125 nL, time 70.5 hour; cytotoxicity at 70.5 h: concentration not given beside the values
Settings: HepG2 cells, read-out: Inhibition

| Structure (SMILES) | cytotoxicity at 70.5 h [%] |
| --- | --- |
| O=C(Nc1cc(C(F)(F)F)c[nH]c1=O)c1ccco1 | 64 |
| O=C(NCCCN1CCCCC1)c1ccc(-n2ccc3ccccc32)s1 | 64.9 |
| Cc1cccc(C)c1Nc1noc2c1CN(C(=O)c1cn(C)cn1)CC2 | 75.1 |
| CC(C)Nc1cc(-c2c[nH]nc2C2CCN(C(=O)C3CCC3)C2)ccn1 (stereo not drawn) | 95.8 |
| Cc1cnc(CCN(C)C(=O)c2cccc(N(C)C)c2)s1 | 60.6 |
| Cc1nn(C)cc1C(=O)Nc1cccc(CN2CCC(CO)CC2)c1 | 60.6 |
| COCC(NC(=O)c1cn2ccsc2n1)c1ccnn1C (stereo not drawn) | 97.2 |
| CCc1[nH]c2c(CNc3cc(C)nc(NC)n3)cc(C)cc2c1C | 98.3 |
| CC(C)c1cc(CN2CCNCC2)no1 | 94.6 |
| Cc1cnn(CC2CCCCN2C(=O)Cc2ccc(C#N)cc2)c1 (stereo not drawn) | -7.76 |
| Cc1cnn(CC2CCCCN2C(=O)Cc2cccc(F)c2)c1 (stereo not drawn) | -10.9 |
| Cc1cnn(CC2CCCCN2C(=O)CC(F)(F)F)c1 (stereo not drawn) | -3.76 |
| Cc1cccc(NC(=O)N2CCN(Cc3noc(C4CC4)n3)CC2)c1 | 2.6 |
| Cc1nnc2n1CCN(CCOc1ccccc1C#N)C2 | 11.3 |
| OC(CN1CCC(CNCc2ccccn2)CC1)c1ccccc1 (stereo not drawn) | 1.35 |
| CCc1[nH]ncc1C(=O)N1CCOC(c2nc(C)n[nH]2)C1 (stereo not drawn) | -2.8 |
| c1ccc(-n2ncc(CN3CCCC(Cn4cncn4)C3)n2)cc1 (stereo not drawn) | 0.701 |
| CC(=O)N1CCN(C(=O)NCCc2ccc(Cl)s2)CC1 | -4.33 |
| Cc1ccc(-c2nc(CN(Cc3cccs3)CC3CCCO3)no2)cc1 (stereo not drawn) | -8.66 |
| Cc1ccc(-c2nc(CC(=O)N3CCN(c4cnccn4)CC3)cs2)o1 | -4.05 |
| NC(=O)CC1CCN(C(=O)NCCc2ccc(Cl)s2)CC1 | -4.12 |
| O=C(NCC(F)(F)F)C1CSCN1S(=O)(=O)c1ccc(F)cc1Cl (stereo not drawn) | -10.4 |
| O=C(NC1CCN(Cc2cccc3c2OCCO3)CC1)c1cccs1 | 0.406 |
| CCCN1CCC(CNC(=O)C2(c3cccc(C)c3)CC2)C1 (stereo not drawn) | 4.42 |
| Cn1ccnc1CN1CCOC(Cn2cccn2)C1 (stereo not drawn) | -1.69 |

| Structure (SMILES) | cytotoxicity at 70.5 h [%] |
| --- | --- |
| c1ccc(-n2cc(CN3CCCC3Cn3cncn3)nn2)cc1 (stereo not drawn) | -1.22 |
| c1ccc(-n2cc(CN3CCCCC3Cn3cncn3)nn2)cc1 (stereo not drawn) | -0.323 |
| c1cnnc(N2CCCC2CNc2ncnc3sccc23)c1 (stereo not drawn) | -7.82 |
| Cc1ccc(NC2CCN(C(=O)c3ccc(Cl)cc3F)CC2)nn1 | 23.4 |
| CNc1cc2c(nn1)CCN(C(=O)c1cc(C)n(C3CC3)c1C)C2 | 15.8 |
| CCNc1cc2c(nn1)CCN(C(=O)c1cc(C)n(C3CC3)c1C)C2 | -0.806 |
| CCOc1ccc(S(=O)(=O)NCc2cccnc2N(C)C)cc1 | 52.9 |
| COCCOc1ccc(NC(=O)N(C)Cc2ccsc2)cn1 | 3.32 |
| O=C(CN1CCC(c2ccnn2CCO)CC1)NCc1cccs1 | 18.4 |
| O=C(CN1CCC(c2ccnn2CCO)CC1)NCC1CC1 | 10.7 |
| CC(C)N(CC(N)=O)Cc1csc(Cc2ccccc2)n1 | 24.4 |
| CCC(CNC(=O)Nc1cnn(CC)c1)N1CCCC1 (stereo not drawn) | -3.1 |
| Cc1nn(C)c(N2CCOCC2)c1CNC1CCN(C(C)(C)C)CC1 | 1.66 |
| Cc1csc(N2CCN(C(=O)CCn3cncn3)CC2)n1 | -7.97 |
| CCn1cc(CN2CCCN(C(=O)Cc3cccs3)CC2)cn1 | 28 |
| O=C1CC(N(C(=O)c2ccc3c(c2)CCC3)C2CC2)C(=O)N1 (stereo not drawn) | 33.4 |
| COc1cc(C(=O)N(C2CC2)C2CC(=O)NC2=O)ccc1C (stereo not drawn) | -0.747 |
| Cc1cccc(-c2noc(CN3CCCC(Cn4cncn4)C3)n2)c1 (stereo not drawn) | 35.6 |
| Cc1nccn1C1CCCN(C(=O)c2cc3ccccc3[nH]2)C1 (stereo not drawn) | 42.8 |
| Cc1nccn1C1CCCN(C(=O)c2cc(O)nc3ccccc23)C1 (stereo not drawn) | 12.3 |
| Cc1nn(C)c(N2CCOCC2)c1CNC1CCc2ccccc2C1 (stereo not drawn) | 16.6 |
| Cn1cc(C2CCCN2Cc2csc(C(C)(C)C)n2)cn1 (stereo not drawn) | 25.7 |
| Cn1cc(C2CCCN2Cc2csc(-c3ccsc3)n2)cn1 (stereo not drawn) | -0.271 |
| Cc1nc(Nc2ncc(C)s2)cc(C2CCCN2)n1.Cl (stereo not drawn) | 95.5 |
| CC(C)N1CCN(c2ccc3ccc(C(=O)NC4CCCC4)cn23)CC1.O=C(O)C(F)(F)F | 101 |
